Data set [1] can be described thus: Endoxifen permeation studies with MFtC, with or without permeation enhancers. The data set is classed as in vitro ADME, rat. The settings on record: for Flux / Lag time: MFtC, rat abdominal skin, mean ± SD, N = 3. As to the method:
A fluorescence assay for endoxifen was established whereby endoxifen was converted to highly fluorescent phenanthrene derivatives following exposure to ultraviolet (UV) irradiation. A UV transilluminator (Bio Rad, USA) at λ=302 nm and an intensity of 866 μW/cm^2 was used for the conversion of endoxifen to its phenanthrene derivatives. The fluorescence emitted from the phenanthrene derivatives of endoxifen after various durations of UV exposure was determined with a microplate reader at a λex=260 nm and a λem=380 nm. Fluorescence measurements from non-UV exposed samples served as a control. The optimum duration of UV irradiation was determined with a 10 μg/ml solution of endoxifen. For all subsequent experiments, this duration of UV irradiation was fixed at the optimal time. The validated MFtC 5 mounted with rat abdominal skin was employed to determine the permeation profile of endoxifen. Donor solutions comprised of endoxifen (2 mg/ml) in PG with and without permeation enhancers (PEs) namely limonene, myristyl lactate and oleic acid at 0.5% (w/v) were prepared. All solutions were sonicated for 3 min to ensure dissolution of endoxifen and PEs. Each donor compartment 220 was filled with 200 μl of donor solution. Endoxifen was allowed to permeate through the rat abdominal skin over 48 hr. The experiments were performed in triplicates. Samples of permeated solutions were collected at specific time intervals and stored at −20° C. until analysis. The flux at steady state (Jss) and lag time were obtained from the cumulative plots. The effect of the PEs on the flux was evaluated by calculating the enhancement index (EI). Independent sample t-test (IBM SPSS PASW Statistics 18) was used to compare the permeation parameters obtained from experiments involving horizontal diffusion cell and MFtC 5. For endoxifen permeation experiments, one-way analysis of variance (ANOVA) with Scheffe post hoc test was used for the comparison of the permeation parameters of endoxifen with or without the different PEs. For all tests, p<0.05 was considered significant.

A short description of data set [2]: Flux through rat skin translated to human skin. The note with it: translated from the rat skin flux of 6.52 μg/cm^2/hr; limonene as PE in PG. Format: in vitro ADME.
For data set [3] the following is noted: cited from earlier work.
For data set [4] the following is noted: endoxifen in 60% (v/v) ethanol-phosphate buffer with 0.5% (w/v) oleic acid; cited from earlier work.
The nature of data set [5]: Permeation across rat abdominal skin in horizontal diffusion cell (HDC). The data set is classed as in vitro ADME. As to the method:
To evaluate the performance characteristics of the MFtC 5, permeation of model compounds (rhodamine B and mangostin) using a horizontal diffusion cell (TK-6H1, Shanghai Kai Kai Technology, China) and a MFtC 5 was compared. Rat abdominal skins were obtained from the National University of Singapore Animal Centre and kept at −80° C. until use. Prior to the permeation studies, the skins were thawed and hair was completely removed with an electrical shaver and hair remover cream (Veet). Subcutaneous fat and connective tissues were also lightly trimmed off. All animal experiments were approved by Institutional Animal Care and Use Committee, National University of Singapore. A 2.0 cm×2.0 cm piece of rat abdominal skin was mounted between the donor and receptor compartments of the horizontal diffusion cell, with the stratum corneum side facing the donor compartment. The effective diffusion area was 1.13 cm^2. Each donor cell contained 4.5 ml of each model compound in propylene glycol (PG) and the receptor cell contained the same volume of PBS. Mangostin was used at a concentration of 2.3 mg/ml and rhodamine B at concentrations of 1 mg/ml and 5 mg/ml. Both compartments were thermostated at 37° C. by means of a surrounding temperature controlled water jacket. In order to minimize evaporation, all cell openings were occluded with parafilm. The fluids in both compartments were maintained in a stirred state by a Teflon coated magnetic stirrer at a speed of 250±1.25 rpm. Samples (1 ml) were withdrawn from the receptor compartment for analysis at specific time intervals. Upon each sample withdrawal, the receptor compartment was immediately replaced by an equal volume of fresh solution. The experiments were performed in triplicates or more. Skin samples from the same rat were used for comparisons between the horizontal diffusion cell and a MFtC 5 to minimise inter-animal variability. All experiments were performed at least three times. The samples were collected at the same time intervals and stored at 4° C. until analysis. During analysis, samples were first centrifuged at 13,000 rpm (Sorvall Biofuge Pico, UK) for 5 min. The supernatant was obtained and analyzed according to their respective assay methods as reported below. Concentration of rhodamine B was determined by fluorescence spectroscopy with a microplate reader (Tecan, Switzerland) at an excitation wavelength (λex)=554 nm and an emission wavelength (λem)=586 nm at ambient temperature. All samples were protected from light to prevent possible light quenching of fluorescence during the assay. Mangostin concentration was determined with a reversed phase HPLC (Hitachi, Japan) using a C18 column (5 μm, 4.6 mm×250 mm; ODS Hypersil, Thermo Scientific) maintained at ambient temperature. The mobile phase comprised of methanol and ultrapure water (90:10, v/v) delivered at a flow rate of 1 ml/min. The UV detector (L-2400, Hitachi, Japan) was operated at a λ=320 nm. Under these conditions, the mangostin peak appeared at a retention time of 6.8 min.

The nature of data set [6]: Permeation across rat abdominal skin in miniaturized flow-through cell (MFtC), validation. Format: in vitro ADME. As to the method: To evaluate the performance characteristics of the MFtC 5, permeation of model compounds (rhodamine B and mangostin) using a horizontal diffusion cell (TK-6H1, Shanghai Kai Kai Technology, China) and a MFtC 5 was compared. Rat abdominal skins were obtained from the National University of Singapore Animal Centre and kept at −80° C. until use. Prior to the permeation studies, the skins were thawed and hair was completely removed with an electrical shaver and hair remover cream (Veet). Subcutaneous fat and connective tissues were also lightly trimmed off. All animal experiments were approved by Institutional Animal Care and Use Committee, National University of Singapore. Similar conditions were used in the MFtC 5 or MFtC 5 setup. A 1.0 cm×1.0 cm piece of rat abdominal skin was mounted between the donor compartment 220 and the receptor compartment 120 with the stratum corneum side facing the donor compartment 220 of the MFtC 5. In some embodiments, the area and shape of the skin/membrane of the present disclosure can be modified as needed or per application requirements. A sealant or sealing substance or material such as high vacuum grease (Dow Corning, USA) was applied to the donor compartment 220 on the unexposed stratum corneum side, in contact with the receptor compartment 120, to minimize leakage from the donor compartment 220. Other sealants, sealing substances, or high vacuum grease for minimizing leakage from the donor compartment 220 can be selected as needed or per application requirements. […] On the other hand, leakage of the donor solution could be observed when no grease was applied. In an embodiment of the present disclosure, the effective diffusion area was 0.283 cm^2. In some embodiments, the effective diffusion area can be about 0.283 cm^2 to about 0.5 cm^2. In an embodiment of the present disclosure, 70 μl of the donor solution was added into the donor compartment 220. In some embodiments, the volume of the donor solution added to the donor compartment 220 can be about 70 μl to about 300 μl. In an embodiment of the present disclosure, the receptor fluid or receptor solution comprised degassed PBS solution. In some embodiments, the receptor solution of the present disclosure can comprise other solutions such as water, buffers, extracellular fluid, lung lining fluid, gastric fluid, and/or cerebrospinal fluid. In an embodiment of the present disclosure, the flow rate of receptor solution through each diffusion cell 50 can be controlled by an infusion pump system 60, wherein the flow rate can be about 0.20 ml/hr. In some embodiments, the flow rate of receptor solution through each diffusion cell 50 can be reduced or increased to a flow rate of about 0.828 μl/hr to about 1270 ml/hr as needed or per application requirements. An embodiment of a MFtC 5 of the present disclosure was placed in a temperature controlling system such as a water bath 80 maintained at 37° C. using a hot plate to control the temperature. In some embodiments, the temperature can be adjusted as needed or per application requirements. In order to minimize evaporation, the donor compartment 220 and sampling container(s) 70 such as a sampling microfuge tube(s) 70 were occluded with parafilm. The sampling container(s) 70 such as a sampling tube(s) 70 was collected at specific time intervals and replaced by a sampling container(s) 70 such as an empty sampling tube(s) 70 for subsequent collections. The experiments were performed in triplicates or more. In some embodiments, the method of collecting the sample can be modified as needed or per application requirements. Skin samples from the same rat were used for comparisons between the horizontal diffusion cell and a MFtC 5 to minimise inter-animal variability. All experiments were performed at least three times. The samples were collected at the same time intervals and stored at 4° C. until analysis. During analysis, samples were first centrifuged at 13,000 rpm (Sorvall Biofuge Pico, UK) for 5 min. […]

The mark [7] stands for this setting: ENX 2 mg/ml in PG alone (control).
The mark [8] stands for this setting: ENX 2 mg/ml in PG with limonene 0.5% (w/v).
Where [9] appears, read: ENX 2 mg/ml in PG with myristyl lactate 0.5% (w/v).
[10] abbreviates: ENX 2 mg/ml in PG with oleic acid 0.5% (w/v).
Where [11] appears, read: HDC, donor 1 mg/ml in propylene glycol, rat abdominal skin, mean ± SD.
Setting [12] is: HDC, donor 5 mg/ml in propylene glycol, rat abdominal skin, mean ± SD.
Setting [13] is: MFtC, donor 1 mg/ml in propylene glycol, rat abdominal skin, mean ± SD.
Where [14] appears, read: MFtC, donor 5 mg/ml in propylene glycol, rat abdominal skin, mean ± SD.

Here are results for seven compounds from patent US9581577B2, “Miniaturized flow-through cell” (NATIONAL UNIVERSITY OF SINGAPORE, priority 2012, dated 2017).

In general, log P refers to a log measure of how a compound divides between an organic and an aqueous phase. For `CC/C(=C(\c1ccc(O)cc1)c1ccc(OCCNC)cc1)c1ccccc1` [endoxifen], the Flux in data set [1] (setting [7]) is 0.65 ± 0.01 μg/cm^2/hr; in data set [1] (setting [8]) it was 6.52 μg/cm^2/hr; in data set [1] (ENX 2 mg/ml in PG with limonene 0.5% (w/v), listed as ENX) it was 6.52 ± 1.41 μg/cm^2/hr; in data set [1] (setting [9]) it was 5.33 ± 0.13 μg/cm^2/hr; in data set [1] (setting [10]), 4.09±1.07 μg/cm^2/hr; in data set [1] (ENX 2 mg/ml in PG with oleic acid 0.5% (w/v), listed as ENX), 4.09 ± 1.07 μg/cm^2/hr. Besides, the Lag time is 1.03 ± 1.40 h in data set [1] (setting [7]), 3.75 ± 2.37 h in data set [1] (setting [8]), 7.62 ± 2.18 h in data set [1] (setting [9]) and 7.58 ± 4.04 h in data set [1] (setting [10]). The entries for the “Enhancement index (EI) = Jss (with enhancer)/Jss (without enhancer)” value in data set [1] (ENX in PG with limonene 0.5% (w/v) versus PG alone), in data set [1] (ENX in PG with myristyl lactate 0.5% (w/v) versus PG alone) and in data set [1] (ENX in PG with oleic acid 0.5% (w/v) versus PG alone) were 9.99, 8.17 and 6.26, respectively. Besides, in data set [2], the “Flux through human skin” value stood at 2.17 μg/cm^2/hr. Besides, in data set [3], the “log P” value is 4.94. Besides, the “Highest flux reported (Jss)” value in data set [4] is 0.22 μg/cm^2/hr.

With `C=C(C)[C@H]1CC=C(C)CC1` [limonene, (R)-(+)-limonene], in data set [3], the “log P” value is recorded as 4.83.

Consider `COc1c(O)cc2oc3cc(O)c(CC=C(C)C)c(O)c3c(=O)c2c1CC=C(C)C` [mangostin, α-mangostin], for which, in data set [5] (rat, 48 h, 2.3 mg/ml), the Flux was determined as 7.06 ± 1.06 μg/cm^2/hr and the Lag time was 7.19 ± 0.47 h. Further, in data set [6] (rat, 48 h, 2.3 mg/ml), the Flux amounted to 8.34 ± 3.40 μg/cm^2/hr and the Lag time stood at 14.5 ± 2.71 h. Also, in data set [3], the “log P” value was 6.64.

Take `CCCCCCCCCCCCCCOC(=O)C(C)O` (stereo not shown) [myristyl lactate]: the “log P” value in data set [3] is given as 6.08.

On to `CCCCCCCC/C=C\CCCCCCCC(=O)O` [oleic acid], for which, in data set [3], the log partition coefficient (log P) is listed as 7.42.

With `CC(O)CO` (stereo not shown) [propylene glycol], in data set [3], the “log P” value is −1.00.

With `CCN(CC)c1ccc2c(-c3ccccc3C(=O)O)c3ccc(=[N+](CC)CC)cc-3oc2c1.[Cl-]` [rhodamine B], the Flux in data set [5] (setting [11]) was 0.04 ± 0.03 μg/cm^2/hr; in data set [5] (setting [12]), 0.07 ± 0.01 μg/cm^2/hr; in data set [6] (setting [13]), 0.05 ± 0.02 μg/cm^2/hr; in data set [6] (setting [14]) it was 0.05 ± 0.02 μg/cm^2/hr. Besides, the Lag time is 17.7 ± 3.47 h in data set [5] (setting [11]), 11.4 ± 3.31 h in data set [5] (setting [12]), 22.1 ± 4.07 h in data set [6] (setting [13]) and 8.35 ± 4.75 h in data set [6] (setting [14]). Besides, the “log P” value in data set [3] is 2.43.
